From patent US6818407B2, “Anti-endotoxic antimicrobial cationic peptides and methods of use therfor” (priority 1998, dated 2004)
Ends that are not written are not given here.

Key:
Format in all cases: cell-based
[1] = system: P. aeruginosa gyrase mutant (Nal A, H374); settings: for (B) MIC of Nal when combined with peptide: nalidixic acid with peptide at concentration (A), unit from method; for (B) MIC of Nal when combined with peptide / FIC index / (A) Peptide doses together with Nal: Nal A; for FIC index: peptide + nalidixic acid; for MIC A MIC of Peptides: peptide alone, P. aeruginosa gyrase mutant Nal A; for (A) Peptide doses together with Nal: peptide concentration in combination with nalidixic acid
Experimental: (§1) The biological activity of the peptides can be determined by standard methods known to those of skill in the art, such as Aminimal inhibitory concentration (MIC)≅ assay described in the present examples, whereby the lowest concentration at which no change in OD is observed for a given period of time is recorded as MIC. Alternatively, Afractional inhibitory concentration (FIC)≅ is also useful for determination of synergy between the peptides of the invention, or the peptides in combination with known antibiotics. FICs are performed by checkerboard titrations of peptides in one dimension of a microtiter plate, and of antibiotics in the other dimension, for example. The FIC is calculated by looking at the impact of one antibiotic on the MIC of the other and vice versa. […] Preferably, an FIC of less than 0.5 is obtained for synergism. As used herein, FIC can be determined as follows: [formula]
(§2) To test whether the peptides of the invention synergize with various antibiotics, the following method was employed. Fractional Inhibitory Concentration (FIC) was used to determine synergy of peptides combined with antibiotics (e.g., carbenicillin/ciprofloxacin) against Pseudomonas aeruginosa. The following methodology was followed:
(§3) (1) Determination of MIC of cationic peptides (MIC A):
(§4) 100 μl Mueller Hinton broth (MHB) was added per well
(§5) 12.5 μl of 10× test concentration peptide was added per well to get final peptide concentration of e.g., 128, 64, 32, . . . 0.025 μg/ml from row 1 to 11;
(§6) 10 μl of 10^−4 dilution of overnight bacterial culture was added per well.
(§7) (2) Determination of MIC of Carbenicillin/Ciprofloxacin (MIC B):
(§8) 100 μl MHB was added per well;
(§9) 100 μl of 2× test concentration of antibiotic was added in the first well of the row, and doubling dilutions performed across the plate from column 1 to 11;
(§10) (3) Determination of MIC of antibiotics (B) when combined with peptides at concentration A:
(§11) 100 μl Carbenicillin (512 μg/ml) or Ciprofloxacin (8 μg/ml) was added in each well of column 1; doubling dilutions were performed across the plate;
(§12) 100 μl of the peptide was added in all wells of row 1, mixed, and 100 μl withdrawn and added to row 2, etc., creating a checkerboard titration.
(§13) 10 μl of 10^−4 dilution of overnight culture was added per well;
(§14) plates were incubated at 37EC for 18-24 hours. Combination MIC values A and B were taken as the lowest concentration of drug that reduced bacterial growth by more than 50% in any given column.
(§15) (4) FIC index=FICA+FICB=(A)/MIC A+(B)/MIC B. An FIC index of approximately 0.5 or less indicates synergy; 1.0 reflects additivity; and >1.0 indicates antagonism.

Salmonella typhi = experiment: Synergy study (checkerboard titration) with hen white lysozyme
Experimental: as §1

E. coli [2] = experiment: as above; settings: for Lowest [CP] showing synergy: cationic peptide concentration, combined with lysozyme; for Lowest [Lyso] showing synergy: lysozyme concentration, combined with the peptide
Experimental: as §1

P. aeruginosa (H103) = experiment: as above; settings: for Lowest [CP] showing synergy: cationic peptide concentration, combined with lysozyme; for Lowest [Lyso] showing synergy: lysozyme concentration, combined with the peptide
Experimental: as §1

S. aureus K147 = experiment: MIC, broth microdilution assay in polypropylene microtiter trays; settings: average of three separate experiments
Experimental: as §1
(§16) A method which employed polypropylene microtiter trays in a broth microdilution assay was developed.

P. aeruginosa = experiment: as above; settings: average of three separate experiments
Experimental: as §1, §16

E. coli [3] = experiment: as above; settings: average of three separate experiments
Experimental: as §1, §16

S. aureus = experiment: as above; settings: average of three separate experiments
Experimental: as §1, §16

[4] = system: β-lactamase derepressed mutant (H547) of P. aeruginosa; experiment: microbe, parasite or virus in culture; settings: for (B) MIC of Carb when combined with peptide: Carbenicillin with peptide at concentration (A); for (B) MIC of Carb when combined with peptide / FIC index / MIC A MIC of Peptides / (A) Peptide doses together with Carb: P. aeruginosa H547; for FIC index: peptide + Carbenicillin, about 0.5 or less synergy, 1.0 additivity, >1.0 antagonism; for MIC A MIC of Peptides: peptide alone; for (A) Peptide doses together with Carb: peptide concentration in combination with Carbenicillin
Experimental: as §1, §2, §3, §4, §5, §6, §7, §8, §9, §10, §11, §12, §13, §14, §15

[5] = system: P. aeruginosa efflux mutant (Nal B, H744); experiment: microbe, parasite or virus in culture; settings: for (B) MIC of Nal when combined with peptide: nalidixic acid with peptide at concentration (A); for FIC index: peptide + nalidixic acid; for MIC A MIC of Peptides: peptide alone, P. aeruginosa efflux mutant Nal B, H744 (Table 6); for (A) Peptide doses together with Nal: peptide concentration in combination with nalidixic acid
Experimental: as §1, §2, §3, §4, §5, §6, §7, §8, §9, §10, §11, §12, §13, §14, §15

[6] = system: mutant (Nal B, H744) of P. aeruginosa; experiment: microbe, parasite or virus in culture; settings: for (B) MIC of Cipro when combined with peptide: ciprofloxacin with peptide at concentration (A); for (B) MIC of Cipro when combined with peptide / FIC index / (A) Peptide doses together with Cipro: Nal B, H744; for FIC index: peptide + ciprofloxacin; for MIC A MIC of Peptides: peptide alone, P. aeruginosa mutant Nal B, H744 (Table 5); for (A) Peptide doses together with Cipro: peptide concentration in combination with ciprofloxacin
Experimental: as §1, §2, §3, §4, §5, §6, §7, §8, §9, §10, §11, §12, §13, §14, §15

[7] = system: Pseudomonas aeruginosa outer membrane barrier altered (Z61); settings: Mueller Hinton Broth
Experimental: as §1
(§17) These peptides varied in activity (Table 11), however, the C-terminally capped pleurocidin especially and its N-terminally capped lysine derivative had much better activities against a variety of bacteria including Vibrio anguillarum (Va), Aeromonas salmonicida (As), Staphylococcus epidermidis (C621), Salmonella typhimurium wild type (C587) and phoP phoQ mutant (C610), and Pseudomonas aeruginosa wild type (K799) and outer membrane barrier altered (Z61). The antimicrobial peptide CEME, a fusion peptide made from portions of an insect defensin ceropin A and the bee venom peptide melittin (Piers and Hancock, Mol. Microbiol., 12:951-8, 1994), as well as the known antibiotics polymyxin B and gentamicin were used as controls. Replacing the pleurocidin N-terminus with the dermaseptin N-terminus had no effect. Replacing pleurocidin N-terminus with the ceratoxin N-terminus reduced activity. […] Amidating the C-terminus improved antimicrobial activity. Replacing the pleurocidin C-terminus with the misgurin C-terminus had no effect.
(§18) Bacteria included Vibrio anguillarum (Va), Aeromonas salmonicida (As), Staphylococcus epidermidis (C621), Salmonella typhimurium wild type (C587) and phoP phoQ mutant (C6 10), and Pseudomonas aeruginosa wild type (K799) and outer membrane barrier altered (Z61).

Vibrio anguillarum (Va) = settings: Mueller Hinton Broth
Experimental: as §1, §17, §18

[8] = system: Pseudomonas aeruginosa wild type (K799); settings: Mueller Hinton Broth
Experimental: as §1, §17, §18

[9] = system: Salmonella typhimurium wild type (C587); settings: Mueller Hinton Broth
Experimental: as §1, §17, §18

[10] = system: Aeromonas salmonicida (As); settings: Mueller Hinton Broth
Experimental: as §1, §17, §18

[11] = system: Staphylococcus epidermidis (C621); settings: Mueller Hinton Broth
Experimental: as §1, §17, §18

[12] = system: Salmonella typhimurium phoP phoQ mutant (C610); settings: Mueller Hinton Broth
Experimental: as §1, §17, §18

[13] = efflux mutant Nal B, H744, unit from method

Compound | (B) MIC of Nal when combined with peptide [1] | FIC index [1] | MIC A MIC of Peptides [1] | (A) Peptide doses together with Nal [1] | FIC for combination of cationic peptide and lysozyme (Salmonella typhi) | FIC for combination of cationic peptide and lysozyme (E. coli [2]) | Lowest [CP] showing synergy (E. coli [2]) | Lowest [Lyso] showing synergy (E. coli [2]) | FIC for combination of cationic peptide and lysozyme (P. aeruginosa (H103)) | Lowest [CP] showing synergy (P. aeruginosa (H103)) | Lowest [Lyso] showing synergy (P. aeruginosa (H103)) | MIC S. aureus K147 (S. aureus K147) | MIC P. aeruginosa (P. aeruginosa) | MIC E. coli (E. coli [3]) | MIC S. aureus (S. aureus) | (B) MIC of Carb when combined with peptide [4] | FIC index [4] | MIC A MIC of Peptides [4] | (A) Peptide doses together with Carb [4] | (B) MIC of Nal when combined with peptide [5, 13] | other results
KKWKKFIKKIGIGAVLTTPGAKK [CPα3] | 800 µg/mL | 0.50 | 8 µg/mL | 1 µg/mL | Confluent | 0.31 | 0.65 µg/mL | 62.5 µg/mL | 0.08 | 1.3 µg/mL | 7.8 µg/mL | >64 µg/mL | ≧64 μg/ml | 4 µg/mL | >64 µg/mL | 32 µg/mL | 0.75 | 16 µg/mL | 4 µg/mL | 400 µg/mL | FIC index ([5]; efflux mutant Nal B, H744): 0.50; MIC A MIC of Peptides [5]: 4 µg/mL; (A) Peptide doses together with Nal ([5]; efflux mutant Nal B, H744): 1 µg/mL; (B) MIC of Cipro when combined with peptide [6]: .125 µg/mL; FIC index [6]: .75; MIC A MIC of Peptides [6]: 4 µg/mL; (A) Peptide doses together with Cipro [6]: 1 µg/mL
CC1(C)S[C@@H]2[C@H](NC(=O)C(C(=O)O)c3ccccc3)C(=O)N2[C@H]1C(=O)O (stereo partly shown) [Carb, Carbenicillin, reference compound] | – | – | – | – | – | – | – | – | – | – | – | – | – | – | – | – | – | – | – | – | MIC ([4]; Pseudomonas aeruginosa, read-out: MIC B MIC of Carb): 64 µg/mL
ALWKTMLKKAAHVGKHVGKAALGAAARRRK [DER-M] | – | – | – | – | – | – | – | – | – | – | – | – | – | – | – | – | – | – | – | – | MIC Z61 [7]: 8 µg/mL; MIC Va (Vibrio anguillarum (Va)): >64 µg/mL; MIC K799 [8]: 64 µg/mL; MIC C587 [9]: 32 µg/mL; MIC As [10]: 2 µg/mL; MIC C621 [11]: 32 µg/mL; MIC C610 [12]: 0.5 µg/mL
RQRVEELSKFSKKGAAARRRK [Peptide M-0, reference compound] | – | – | – | – | – | – | – | – | – | – | – | – | – | – | – | – | – | – | – | – | MIC Z61 [7]: >64 µg/mL; MIC Va (Vibrio anguillarum (Va)): >64 µg/mL; MIC K799 [8]: >64 µg/mL; MIC C587 [9]: >64 µg/mL; MIC As [10]: >64 µg/mL; MIC C621 [11]: >64 µg/mL; MIC C610 [12]: >64 µg/mL
KWKSFIKKLTSAAKKVTTAAKPLTK [CPα1] | 800 µg/mL | 0.38 | 8 µg/mL | 1 µg/mL | 0.63 | 0.31 | 0.65 µg/mL | 7.8 µg/mL | 0.28 | 5.21 µg/mL | 7.8 µg/mL | >64 µg/mL | ≧64 μg/ml | 1.5 µg/mL | >64 µg/mL | 32 µg/mL | 0.75 | 16 µg/mL | 4 µg/mL | 400 µg/mL | Lowest [CP] showing synergy (Salmonella typhi; cationic peptide concentration, combined with lysozyme): 41.7 µg/mL; Lowest [Lyso] showing synergy (Salmonella typhi; lysozyme concentration, combined with the peptide): 125 µg/mL; FIC index ([5]; efflux mutant Nal B, H744): 0.38; MIC A MIC of Peptides [5]: 8 µg/mL; (A) Peptide doses together with Nal ([5]; efflux mutant Nal B, H744): 1 µg/mL; (B) MIC of Cipro when combined with peptide [6]: .125 µg/mL; FIC index [6]: .63; MIC A MIC of Peptides [6]: 8 µg/mL; (A) Peptide doses together with Cipro [6]: 1 µg/mL
CCn1cc(C(=O)O)c(=O)c2ccc(C)nc21 [Nal, nalidixic acid, reference compound] | – | – | – | – | – | – | – | – | – | – | – | – | – | – | – | – | – | – | – | – | MIC ([5]; Pseudomonas aeruginosa, read-out: MIC B MIC of Nal): 3200 µg/mL; MIC B MIC of Nal ([5]; nalidixic acid alone, efflux mutant Nal B, H744, unit from method): 3200 µg/mL
